How the values were obtained:
[1] = target: Myeloid Cell Leukemia 1 (Mcl-1) (Homo sapiens (Human), UniProt Q07820); assay: Terbium labeled Mcl-1 HTRF binding assay (displacement of Cy5-labeled BIM BH3 peptide); details: 25 pM Tb-Mcl-1, 8 nM Cy5 Bim peptide, Ki=IC50/(1+[L]/Kd), [L]=8 nM, Kd=10 nM, read-out: TB-MCL1 Ki
Experimental: Terbium labeled Myeloid Cell Leukemia 1 (Mcl-1) homogeneous time-resolved fluorescence (HTRF) binding assay utilizing the BIM BH3 peptide (H2N-(C/Cy5Mal) WIAQELRRIGDEFN-OH) as the binding partner for Mcl-1.
This assay evaluated inhibition of the BH3 domain: Mcl-1 interaction by measuring the displacement of Cy5-labeled BIM BH3 peptide (H2N—(C/Cy5Mal) WIAQELRRIGDEFN-OH) in the HTRF assay format.
The following assay and stock buffers were prepared for use in the assay: (a) Stock buffer: 10 mM Tris-HCl, pH=7.5+150 mM NaCl, filtered, sterilized, and stored at 4° C.; and (b) 1× assay buffer, where the following ingredients were added fresh to stock buffer: 2 mM dithiothreitol (DTT), 0.0025% Tween-20, 0.1 mg/mL bovine serum albumin (BSA). The 1×Tb-Mcl-1+Cy5 Bim peptide solution was prepared by diluting the protein stock solution using the 1× assay buffer (b) to 25 pM Tb-Mcl-1 and 8 nM Cy5 Bim peptide.
Using the Acoustic ECHO, 100 nL of 100× test compound(s) were dispensed into individual wells of a white 384-well Perkin Elmer Proxiplate, for a final compound concentration of 1× and final DMSO concentration of 1%. Inhibitor control and neutral control (NC, 100 nL of 100% DMSO) were stamped into columns 23 and 24 of assay plate, respectively. Into each well of the plate was then dispensed 10 μL of the 1×Tb-Mcl-1+Cy5 Bim peptide solution. The plate was centrifuged with a cover plate at 1000 rpm for 1 minute, then incubated for 60 minutes at room temperature with plates covered. The TR-FRET signal was read on an BMG PHERAStar FSX MicroPlate Reader at room temperature using the HTRF optic module (HTRF: excitation: 337 nm, light source: laser, emission A: 665 nm, emission B: 620 nm, integration start: 60 μs, integration time: 400 pts).
The BMG PHERAStar FSX MicroPlate Reader was used to measure fluorescence intensity at two emission wavelengths—665 nm and 620 nm—and report relative fluorescence units (RFU) for both emissions, as well as a ratio of the emissions (665 nm/620 nm)*10,000. The RFU values were normalized to percent inhibition as follows:
% inhibition=(((NC−IC)−(compound−IC))/(NC−IC))*100
where IC (inhibitor control, low signal)=mean signal of 1×Tb-MC1-1+Cy5 Bim peptide+inhibitor control or 100% inhibition of Mcl-1; NC (neutral control, high signal)=mean signal 1×Tb-MC1-1+Cy5 Bim peptide with DMSO only or 0% inhibition
An 11-point dose response curve was generated to determine IC50 values (using GenData) based on the following equation:
Y=Bottom+(Top−Bottom)/(1+10^((log IC50−X)*HillSlope))
where Y=% inhibition in the presence of X inhibitor concentration; Top=100% inhibition derived from the IC (mean signal of Mcl-1+inhibitor control); Bottom=0% inhibition derived from the NC (mean signal of Mcl-1+DMSO); Hillslope=Hill coefficient; and IC50=concentration of compound with 50% inhibition in relation to top/neutral control (NC).
In this assay [L]=8 nM and Kd=10 nM
Representative compounds of the present invention were tested according to the procedure as described above, with results as listed in the Table below (n.d. means not determined).

[2] = test system: MOLP-8 human multiple myeloma cell line; assay: MOLP8 Caspase-Glo 3/7 apoptosis induction assay; assay type: cell-based; details: MOLP-8 cells, 2 hours incubation at 37° C., averaged values over all runs on all batches
From the text: MCL-1 is a regulator of apoptosis and is highly over-expressed in tumor cells that escape cell death. The assay evaluates the cellular potency of small-molecule compounds targeting regulators of the apoptosis pathway, primarily MCL-1, Bfl-1, Bcl-2, and other proteins of the Bcl-2 family. Protein-protein inhibitors disrupting the interaction of anti-apoptotic regulators with BH3-domain proteins initiate apoptosis.
The Caspase-Glo® 3/7 Assay is a luminescent assay that measures caspase-3 and -7 activities in purified enzyme preparations or cultures of adherent or suspension cells. The assay provides a proluminescent caspase-3/7 substrate, which contains the tetrapeptide sequence DEVD. This substrate is cleaved to release aminoluciferin, a substrate of luciferase used in the production of light. Addition of the single Caspase-Glo® 3/7 Reagent in an “add-mix-measure” format results in cell lysis, followed by caspase cleavage of the substrate and generation of a “glow-type” luminescent signal.
This assay uses the MOLP-8 human multiple myeloma cell line, which is sensitive to MCL-1 inhibition.
Materials: • Perkin Elmer Envision • Multidrop 384 and small volume dispensing cassettes • Centrifuge • Countess automated cell counter • Countess counting chamber slides • Assay plate: ProxiPlate-384 Plus, White 384-shallow well Microplate • Sealing tape: Topseal A plus • T175 culture flask
Cell cultures were maintained between 0.2 and 2.0×10^6 cells/mL. The cells were harvested by collection in 50 mL conical tubes. The cells were then pelleted at 500 g for 5 mins before removing supernatant and resuspension in fresh pre-warmed culture medium. The cells were counted and diluted as needed.
The assay reagent was prepared by transferring the buffer solution to the substrate vial and mixing. The solution may be stored for up to 1 week at 4° C. with negligible loss of signal.
Compounds were delivered in assay-ready plates (Proxiplate) and stored at −20° C.
Assays always include 1 reference compound plate containing reference compounds. The plates were spotted with 40 nL of compounds (0.5% DMSO final in cells; serial dilution; 30 μM highest conc. 1/3 dilution, 10 doses, duplicates). The compounds were used at room temperature and 4 μL of pre-warmed media was added to all wells except column 2 and 23. The negative control was prepared by adding 1% DMSO in media. The positive control was prepared by adding the appropriate positive control compound in final concentration of 60 μM in media. The plate was prepared by adding 4 μL negative control to column 23, 4 μL positive control to column 2 and 4 μL cell suspension to all wells in the plate. The plate with cells was then incubated at 37° C. for 2 hours. The assay signal reagent is the Caspase-Glo solution described above, and 8 μL was added to all wells. The plates were then sealed and measured after 30 minutes.
The activity of a test compound was calculated as percent change in apoptosis induction as follows: • LC=median of the Low Control values • =Central Reference in Screener • =DMSO • =0% • HC=Median of the High Control values • =Scale Reference in Screener • =30 μM of positive control • =100% apoptosis induction
% Effect (AC50)=100−((sample−LC)/(HC−LC))*100
% Control=(sample/HC)*100
% Control min=((sample−LC)/(HC−LC))*100

Chain of Myeloid Cell Leukemia 1 (Mcl-1) (Q07820 whole entry): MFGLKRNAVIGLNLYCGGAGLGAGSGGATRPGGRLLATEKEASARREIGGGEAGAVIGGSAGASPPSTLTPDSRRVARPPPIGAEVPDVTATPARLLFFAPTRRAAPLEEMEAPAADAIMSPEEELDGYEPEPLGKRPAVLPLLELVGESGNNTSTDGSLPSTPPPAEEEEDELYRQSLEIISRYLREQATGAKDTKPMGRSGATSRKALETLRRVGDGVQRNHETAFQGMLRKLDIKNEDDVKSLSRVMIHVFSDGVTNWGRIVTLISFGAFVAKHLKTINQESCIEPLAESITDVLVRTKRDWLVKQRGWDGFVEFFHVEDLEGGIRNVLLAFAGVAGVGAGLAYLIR

COc1ccc(COC2CCc3cc(n(C)n3)CCc3cc(c4ccc(F)cc4c3)OCCCn3c(C(=O)O)c(C)c4c(c(Cl)ccc43)-c3c2nn(C)c3C)cc1 (single isomer, unassigned) [Compound 22]
Ki [1]: 0.357 nM | AC50 [2]: 1000 nM

COc1ccc(COC2CCc3cc(n(C)n3)CCc3cc(c4ccc(F)cc4c3)OCCCn3c(C(=O)O)c(C)c4c(c(Cl)ccc43)-c3c2nn(C)c3C)cc1 (single isomer, unassigned) [Compound 23]
Ki [1]: 0.073 nM | AC50 [2]: 169 nM

COCCCC1OCc2cc(n(C)n2)CCc2cc(c3ccc(F)cc3c2)OCCCn2c(C(=O)O)c(C)c3c(c(Cl)ccc32)-c2c1nn(C)c2C (single isomer, unassigned) [Compound 24]
Ki [1]: 8.42 nM | AC50 [2]: > 25 nM

Cc1c(C(=O)O)n2c3ccc(Cl)c(c13)-c1c(nn(C)c1C)C(CCO)OCc1cc(n(C)n1)CCc1cc(c3ccc(F)cc3c1)OCCC2 (stereo not shown) [Compound 6]
Ki [1]: 0.009 nM | AC50 ([2]; Homo sapiens, MOLP-8, 2 h): 52.7 nM

COCCOCCn1nc(C)c2c1C(C)OCc1cc(n(C)n1)CCc1cc(c3ccc(F)cc3c1)OCCCn1c(C(=O)O)c(C)c3c-2c(Cl)ccc31 (stereo not shown) [Compound 21]
Ki [1]: 0.057 nM | AC50 [2]: 318 nM

CNCCC1OCc2cc(n(C)n2)CCc2cc(c3ccc(F)cc3c2)OCCCn2c(C(=O)O)c(C)c3c(c(Cl)ccc32)-c2c1nn(C)c2C (stereo not shown) [Compound 26]
Ki [1]: 3.61 nM | AC50 ([2]; Homo sapiens, MOLP-8, 2 h): > 30 nM

Cc1nn2c3c1-c1c(Cl)ccc4c1c(C)c(C(=O)O)n4CCCOc1cc(cc4cc(F)ccc14)CCc1cc(nn1C)CCC3OCC2 (stereo not shown) [Compound 29]
Ki [1]: 0.302 nM | AC50 [2]: 146 nM

COCCn1nc2cc1CCc1cc(c3ccc(F)cc3c1)OCCCn1c(C(=O)O)c(C)c3c(c(Cl)ccc31)-c1c(C)nn3c1C(CC2)OCC3 (stereo not shown) [Compound 34]
Ki [1]: 0.408 nM | AC50 [2]: 889 nM
